The values that follow are results of earlier work, collected in patent US11638429B2, “Hypochlorous acid disinfectant and its production method” (SUPER AQUA INTERNATIONAL CO., LTD., priority 2020, dated 2023).

The test system of this data set is coliform. Conditions: versus hypochlorite ion (CLO—); FIG. 2, U.S. EPA.

With `OCl` [hypochlorous acid (HCLO), hypochlorous acid], the “sterilization of hypochlorous acid (HCLO) relative to hypochlorite ion (CLO—)” value was 80 times.
